According to paper PMC5766608, “Target engagement imaging of PARP inhibitors in small-cell lung cancer” (Nature Communications, 2018):
“Also recorded” adds a separate entry of the source.

Experiments:
[1] = test system: PARP1/2; experiment: Blocking of PARPi-FL uptake by PARP inhibitors (confocal microscopy, flow cytometry); assay type: cell-based, human; conditions: JHU-LX22 cells
Method: (§1) Cells were then treated with fluorescent imaging agent PARPi-FL and either imaged via confocal microscopy or measured via flow cytometry. […] Then, cells were trypsinized, subjected to flow cytometry and analyzed for the relative PARPi-FL fluorescence signal. […] Error bars represent the SD of three independent experiments with three parallels each
We conducted confocal laser scanning microscopy to visualize the extent of intracellular blocking of PARPi-FL uptake by different PARPi. […] PARPi-FL was removed and cells were washed in fresh medium for 10 min. Next, cells were treated with 4% Paraformaldehyde (PFA) for 8 min on ice to ensure fixation. […] PARPi-FL intensity was determined by measuring the PARPi-FL fluorescence intensity in all nuclei, which were thresholded using Hoechst staining.
(§2) After the respective treatment/staining, which is described below for the different experiments, cells were washed in PBS, trypsinized, washed with flow buffer (1% BSA (w/v) in PBS), transferred to 5 mL flow cytometry tubes through the 40 µm cell strainer cap and left on ice until measurement in the flow cytometer (Fortessa II). Raw data were processed in FlowJo software in order to calculate PARPi-FL uptake per cell. Dead cells were excluded by eliminating DAPI positive cells from the analysis (Supplementary Fig. 8). Cell clumps and debris were eliminated using the corresponding gates (forward and side scatter) for the unstained cell population. PARPi-FL fluorescence was imaged in the FITC channel against side scatter (area).
Controls (cells incubated with medium instead of a PARP inhibitor) served as reference value and their PARPi-FL signal was defined as 100%.
To quantify the extent of blocking of PARPi-FL uptake by different PARPi, we quantified the intracellular PARPi-FL uptake in JHU-LX22 cells after incubation with PARP inhibitors.

[2] = test system: PARP1/2; experiment: In vitro binding kinetics by recovery of PARPi-FL binding (flow cytometry); assay type: cell-based, human; conditions: JHU-LX22 cells, 0.2 µM inhibitor 25 min, washed, 0-48 h post-incubation, two phase decay fit
Method: as §1, §2
We furthermore determined the duration of PARPi binding to their target site. […] Then, cells were subjected to flow cytometry as described above. […] We determined the duration of binding of the PARPi indirectly by calculating the recovery of PARP-FL binding with increasing times between PARPi and PARPi-FL treatment. Decay curves were calculated with Prism using two phase decay least squares regression.

[3] = test system: JHU-LX22 cells; experiment: Cytotoxicity, Alamar Blue assay; assay type: cell-based, human; conditions: 24-96 h
Method: […]. Cells were plated in 96-well plates (black, clear-bottom, Corning Incorporated) at a density of 5,000 cells/well and allowed them to attach for 24 h. All compounds were prepared as 10 mM stock solutions in DMSO and further diluted in media. Cells were treated with 0, 2, 5, and 10 µM (final solutions containing 1% DMSO) of each compound for 24, 48, 72 and 96 h. Then, media was removed and Alamar Blue reagent was added to each well. Plates were incubated at 37 °C for 4 h under protection from direct light. Fluorescence was read (bottom-read mode) using an excitation wavelength of 570 nm and an emission wavelength of 585 nm on a SpectraMax M5 microplate reader (Molecular Devices, Sunnyvale, CA, USA). The average reading values were analyzed by subtracting the background readings (wells with Alamar Blue but without cells) and compared against the untreated controls of each plate (defined as 100% viability) to determine the percentage of living cells. The experiment was carried out in three biological replicates with four parallels of each compound.
Supplementary Figure 9 | In vitro toxicity of the tested PARP inhibitors and imaging tracers on JHU-LX22 cells. (a) Assessment of viable cell population during flow cytometry after a 2 hour incubation time of several PARP inhibitors at concentrations between 0 and 5 µM. (b) Cell viability determination using Alamar Blue assays. Cells were incubated with 0, 0.2, 2, 5 or 10 µM of each compound for 24, 48, 72 or 96 h and cell viability was assessed using the Alamar Blue assay. (c) IC values derived from Alamar Blue assays at 72 h and 96 h.
Viability data represent means from three independent experiments, each with four parallels of each sample. Error bars represent the standard error (SEM). […]

[4] = biological target: T1, PARP2 (Homo sapiens, UniProt Q9UGN5); experiment: PARP family enzyme activity inhibition screening (BPS Bioscience); assay type: biochemical; conditions: 100 nM inhibitor
T1 construct: purchased BPS Bioscience, San Diego, CA
T1 sequence (Q9UGN5 whole entry): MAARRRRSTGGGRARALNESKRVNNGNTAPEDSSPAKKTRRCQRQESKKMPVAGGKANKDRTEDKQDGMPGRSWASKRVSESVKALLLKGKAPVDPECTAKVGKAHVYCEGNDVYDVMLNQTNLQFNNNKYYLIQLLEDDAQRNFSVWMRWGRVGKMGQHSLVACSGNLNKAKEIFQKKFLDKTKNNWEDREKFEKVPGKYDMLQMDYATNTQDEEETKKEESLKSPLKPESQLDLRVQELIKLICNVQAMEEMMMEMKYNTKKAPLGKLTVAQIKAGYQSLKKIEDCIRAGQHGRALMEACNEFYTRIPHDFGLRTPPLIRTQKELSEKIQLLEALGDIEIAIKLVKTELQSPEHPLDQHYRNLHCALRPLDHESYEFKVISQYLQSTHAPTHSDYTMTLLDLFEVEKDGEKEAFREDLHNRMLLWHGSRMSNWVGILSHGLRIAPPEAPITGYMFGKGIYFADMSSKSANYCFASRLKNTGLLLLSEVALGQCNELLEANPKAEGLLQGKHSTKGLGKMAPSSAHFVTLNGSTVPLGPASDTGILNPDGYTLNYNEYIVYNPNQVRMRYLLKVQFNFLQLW
Method: Fig. 1 Properties of PARP inhibitors. a Structures of 5 clinical therapeutic PARP inhibitors and the 2 PARP imaging agents. b Heatmap visualizing enzymatic activity screening of 10 small molecules against 12 PARP enzymes at 100 nM concentration (for additional concentrations, see Supplementary Fig. 1)
Assay was performed by BPS Bioscience, San Diego, CA. 100 µM DMSO solutions of each inhibitor were provided, and the assay was conducted after dilution to 100, 50, or 10 nM. […] Data was reported by BPS as % Enzyme Activity. Triplicates were combined to get a mean ± SD, and these were grouped and plotted onto a heatmap using Prism 7.
Supplementary Figure 1 | PARP enzyme family binding assays at additional concentrations.
histone substrate and biotin-labeled NAD+ at 100 nM (Fig. 1b), 50 nM (left) and 10 nM (right) for
each inhibitor and each enzyme.

[5] = test system: PARylation in LX22 cells; experiment: PARylation inhibition assay (western blot for PAR); assay type: cell-based, human; conditions: 0.1 µM, 30 min incubation
Method: Whole cell lysates were prepared by incubating cells with RIPA Buffer with Triton X (BP-140, Boston BioProducts) containing Protease Inhibitor (Complete EASYpacks, Sigma-Aldrich) for 30 min on ice, followed by 30 min centrifugation at 10,000 × g for 30 min at 4 °C. Protein concentration of lysates was determined using a Bicinchoninic acid (BCA) assay kit (#23225, Pierce) and following the manufacturers instructions. SDS gel electrophoresis and immunoblotting were carried out following standard procedures. Signal detection was carried out using chemiluminescent substrate (#34077, Thermo Scientific). Densitometric analysis of western blots was carried out using ImageJ (NIH). To detect PAR, we used a rabbit polyclonal anti-PAR polymer antibody (1:1000 dilution, #4336-BPC-100, Trevigen) followed by a goat anti-rabbit IgG-HRP secondary antibody (1:10,000 dilution, sc-2004, SantaCruz). B-actin was used as loading control (1:1000 dilution, A3854, Sigma-Aldrich) and was stained after stripping the blot for 30 min at room temperature using stripping buffer (Amresco).
Supplementary Figure 3 | PARylation inhibition assay.
PARPi-FL and [18F]PARPi quantify PARP inhibition, we compared their ability to inhibit PARylation
in comparison with olaparib.
inhibition. At 1 µM, the PAR signal for all three compounds is nearly completely eliminated.

Structure (SMILES) | Blocking of PARPi-FL uptake / target engagement, in words ([1]; pretreatment with inhibitor, then PARPi-FL) | Retention on PARP1/2 binding sites, in words [2] | Effect on JHU-LX22 cell viability, in words [3] | inhibition at 0.1 µM [4] [%] | Inhibition of PARylation (PAR signal) [5] | Inhibition of PARP2 enzyme activity [4] [%] | Blocking of PARPi-FL uptake ([1]; pretreatment with PARP inhibitor 25 min, then PARPi-FL 15 min)
Cn1ncnc1[C@H]1c2n[nH]c(=O)c3cc(F)cc(c23)N[C@@H]1c1ccc(F)cc1 [Talazoparib, (8S,9R)-5-Fluoro-8-(4-fluorophenyl)-9-(1-methyl-1H-1,2,4-triazol-5-yl)-2,7,8,9-tetrahydro-3H-pyrido[4,3,2-de]phthalazin-3-one] | most complete target engagement | longest retention | most sensitive | – | – | – | –
CC1=CC(C)=[N+]2C1=Cc1ccc(CCC(=O)N3CCN(C(=O)c4cc(Cc5n[nH]c(=O)c6ccccc56)ccc4F)CC3)n1[B-]2(F)F [PARPi-FL] | – | – | very similar effects on JHU-LX22 cell viability as other inhibitors; also recorded: very similar effects on JHU-LX22 cell viability as olaparib | > 90 | reduced PAR signal, but not complete | – | –
O=C(c1ccc(F)cc1)N1CCN(C(=O)c2cc(Cc3n[nH]c(=O)c4ccccc34)ccc2F)CC1 [^19F-PARPi] | – | longest retention | very similar effects on JHU-LX22 cell viability as other inhibitors; also recorded: very similar effects on JHU-LX22 cell viability as olaparib | – | nearly complete inhibition | > 90 | more than 50%
